As a reminder, the solubility is the concentration that dissolves in the medium under given conditions. Usually pIC50 stands for the IC50 on a negative log10 scale, so that one unit is a factor of ten. Broadly, the half-life is the time in which the quantity being followed falls by half. A high value points to slow decline.

Data set [1] in a line: Turbidimetric aqueous solubility. Type of data set: physicochemical. To be noted: 37 °C, pH 7.4, aqueous buffer, kinetic from dmso stock, Turbidity aqueous solubility, Estimated precipitation range. The method, then:
Each test compound concentration was then further diluted 1 in 100 in buffer (0.01 M phosphate buffered saline pH 7.4) so that the final DMSO concentration was 1% and the final test compound concentrations were 1, 3, 10, 30 and 100 μM. The experiment was performed at 37° C. and each concentration was incubated in 7 replicate wells. The plates were incubated for 2 hr at 37° C. before the absorbance was measured at 620 nm.

Data set [2] concerns diffuse intrinsic pontine glioma HSJD-DIPG-007. Nature of the data set: cells. The following applies: read-out: IC50 values; HSJD-DIPG-007; MTS, 72 h incubation; Example 25, Table 8. The text has this:
Cancer cell lines were obtained from the repository maintained at Hospital Sant Joan de Deu (Barcelona, Spain). Cancer cell lines used in these experiment included cancer types of adult glioma (U373 and U87 cell lines), pediatric gliomas including diffuse intrinsic pontine glioma (HSJD-DIPG-007, HSJD-DIPG-011), and pediatric high-grade glioma (HSJD-GBM-001), retinoblastoma (HSJD-RBT-5, HSJD-RBT-7 and HSJD-RBT-14), Ewing sarcoma (A673), rhabdomyosarcoma (Rd and RH4) and neuroblastoma (LAN-1 and SK-N-JD cell lines and HSJD-NB-004, HSJD-NB-005 and HSJD-NB-016 patient-derived cell models). […] To add the drugs to the cells in culture, SN38-linker A-MiniAp4 (Ia) and irinotecan were prepared in culture medium from stock solutions at concentration 1 mg/mL in water. SN38 was prepared in culture medium from a stock solution at concentration 1 mg/mL in DMSO. […] Activity curves were built for adult glioma cell lines U87 (FIG. 1) and U373 (FIG. 2), pediatric gliomas including DIPG models HSJD-DIPG-007 (FIG. 3) and HSJD-DIPG-011 (FIG. 4), and pediatric high-grade glioma model HSJD-GBM-001 (FIG. 5), retinoblastoma models HSJD-RBT-5 (FIG. 6), HSJD-RBT-7 (FIG. 7) and HSJD-RBT-14 (FIG. 8), Ewing sarcoma cell line A673 (FIG. 9), rhabdomyosarcoma cell lines Rd (FIG. 10) and RH4 (FIG. 11), neuroblastoma cell lines LAN-1 (FIG. 12) and SK-N-JD (FIG. 13) and neuroblastoma patient-derived cell models HSJD-NB-004 (FIG. 14), HSJD-NB-005 (FIG. 15) and HSJD-NB-016 (FIG. 16). The established IC50 values are in Table 3.
Cancer cell lines used in these experiments were pediatric gliomas including diffuse intrinsic pontine glioma HSJD-DIPG-007, and pediatric high-grade glioma HSJD-GBM-001. […] To add the drugs to the cells in culture, SN38-Linker A-MiniAp4 (Ia) and SN38-Linker B-THRre were prepared in culture medium from stock solutions at concentration 1 mg/mL in water. SN38 was prepared in culture medium from a stock solution at concentration 1 mg/mL in DMSO. […] Activity curves were built for cells HSJD-DIPG-007 (FIG. 20) and HSJD-GBM-001 (FIG. 21).
Cancer cell lines used in these experiments were pediatric gliomas including diffuse intrinsic pontine glioma HSJD-DIPG-007, and pediatric high-grade glioma HSJD-GBM-001. […] All compounds were prepared in culture medium from stock solutions at concentration 1 mg/mL in water. […] Activity curves were built for cells HSJD-DIPG-007 (FIG. 22) and HSJD-GBM-001 (FIG. 23).
Cancer cell line used in these experiment was HSJD-DIPG-007.

Data set [3] can be described thus: Evaluation of solubility in water. In kind it is physicochemical. The following applies: at 1 mg/mL. How it is done:
25 mg of SN38-linker A-MiniAp4 were dissolved in H2O, showing a completely transparent solution. This means that SN38-linker A-MiniAp4 has a solubility in water higher than 5 mg/mL, more than 400-fold the solubility in water described for SN38 (Mol. Pharmaceutics, 2016, 13, 379-390).

The nature of data set [4]: Stability in human plasma at 37° C. in vitro. Type of data set: in vitro ADME. How it is done:
To assess the stability of the SN38-linker A-MiniAp4 (Ia) (example 7) in human, mouse, dog and rat plasma at 37° C., the compound was prepared at 200 μM in plasma samples in triplicates at each timepoint (0 h, 1 h, 4 h, 8 h and 24 h) for each species. Once the incubation was finalised, plasma proteins were immediately precipitated by adding chilly methanol (ratio 4:1, methanol:plasma) and tubes were shacked for few seconds (vortex). Samples were centrifuged at 3,000 rpm for 30 minutes at 4° C., supernatants were collected, transferred to the injection plate and injected to LC-MS system.
Compound recovery was determined by comparing the analyte response in a biological sample that is spiked with the analyte and processed, with the response in a methanol sample that is spiked with the analyte and processed.
Plasma stability assay was performed using blank plasma from untreated volunteers/animals. K2-EDTA was used as anticoagulant. Human blank plasma used was obtained from Hospital Sant Pau, mouse blank plasma used was obtained from Janvier, dog blank plasma used was obtained from Isoquimen and rat blank plasma used were obtained from Draconis Pharma.
To assess the stability of the G2B-001 lineal (Ib) (example 16) in human plasma at 37° C., the compound was prepared at 200 µM in plasma samples in triplicates at each timepoint (0 h, 0.5 h, 1 h, 2 h, 4 h, 8 h and 24 h). Once the incubation was finalised, plasma proteins were immediately precipitated by adding chilly methanol (ratio 4:1, methanol:plasma) and tubes were shacked for few seconds (vortex). Samples were centrifuged at 3,000 rpm for 30 minutes at 4° C., supernatants were collected, transferred to the injection plate and injected to LC-MS system. Compound recovery was determined by comparing the analyte response in a biological sample that is spiked with the analyte and processed, with the response in a methanol sample that is spiked with the analyte and processed.
Plasma stability assay was performed using blank plasma from untreated volunteers. K2-EDTA was used as anticoagulant. Human blank plasma used was obtained from Hospital Sant Pau.

Each structure is given as a SMILES string. pIC50: −log10 of the molar value. Converted amounts (≈) assume the structure as drawn. *1 amine or outer side, *2 acyl side, *3 side chain or, on linkers, in order; H or OH if unused. Where a SMILES comes first, the peptide text is derived from it. [ ]: non-standard residue; d: D form. The star is where a group is joined. ξ: configuration not given here. X3 = CCc1c2c(nc3ccc(O)cc13)-c1cc3c(c(=O)n1C2)COC(=O)[C@@]3(CC)OC(=O)CCCCn1cc(CCCC(=O)NCCCOCCOCCOCCSCN*)nn1; X4 = CC(O)CC(N[*:1])C(=O)[*:2]; Suc = O=C(CCC(=O)[*:2])[*:1]; ξE = NC(CCC(=O)O)C(=O)O; ξN = NC(=O)CC(N)C(=O)O; ξK = NCCCCC(N)C(=O)O; ξT = CC(O)C(N)C(=O)O; ξDap = NCC(N)C(=O)O; ξP = O=C(O)C1CCCN1; ξA = CC(N)C(=O)O

`COC(=O)C1=C(C)NC(C)=C(C(=O)OCCN(C)Cc2ccccc2)C1c1cccc([N+](=O)[O-])c1` (stereo not shown) [Nicardipine, reference compound]: the figures for the solubility at 2 h in data set [1] (Calculated mid-range), in data set [1] (Lower bond) and in data set [1] (Upper bond) were 11.5 µM (≈ 5.51 µg/mL), 3 µM (≈ 1.44 µg/mL) and 20 µM (≈ 9.59 µg/mL), respectively.

On to `CCc1c2c(nc3ccc(O)cc13)-c1cc3c(c(=O)n1C2)COC(=O)[C@@]3(CC)OC(=O)CCCCn1cc(CCCC(=O)NCCCOCCOCCOCCSCNC(=O)CCC(=O)NC(CN)C(=O)NC(CCCCN)C(=O)NC(C)C(=O)N2CCCC2C(=O)NC(CCC(=O)O)C(=O)NC(C(=O)NC(C)C(=O)NC(CC(C)O)C(=O)NC(CC(N)=O)C(N)=O)C(C)O)nn1` (stereo partly shown) [G2B-001 lineal (Ib)] ({X3-Suc}-[ξDap][ξK][ξA][ξP][ξE][ξT][ξA][X4][ξN]-NH2), for which, in data set [2], the pIC50 was 7.43. Also, the solubility in water result in data set [3] is “good solubility”. Besides, the half-life at 200 μM in data set [4] is greater than 24 h. Further, the recovery at 24 h, 200 μM in data set [4] (24 h, read-out: % Recovery after 24 h in human plasma) came out at 69.9%.

The values are drawn from patent US20240285784A1, “PEPTIDIC CONJUGATES OF SN38 USEFUL IN THE TREATMENT OF CANCER” (FUNDACIÓ INSTITUT DE RECERCA BIOMÈDICA (IRB BARCELONA), priority 2020, published 2024).
